Test results published in patent publication US20110152314A1, “USE OF TENATOPRAZOLE FOR THE TREATMENT OF GASTROESOPHAGEAL REFLUX DISEASE” (SIDEM PHARMA, priority 2002, published 2011).

Legend:
Type in all cases: in vivo, human
[1] = test system: patients suffering from erosive and/or ulcerative type reflux esophagitis; test: Open-labeled studies in reflux esophagitis: improvement rating of subjective and objective symptoms; details: 10 mg tablet orally once a day
Description: Two open-labeled studies have been conducted in order to evaluate the efficacy and safety of tenatoprazole for gastroesophageal reflux disease. 22 patients in the first study and 24 patients in the second study, of more than 20 years of age, suffering from erosive and/or ulcerative type reflux esophagitis (diagnosed by endoscopy), received tablets containing enteric-coated granules with 10 mg of tenatoprazole.
[…] […], or at the withdrawal from the study, the disease stages were evaluated according to the Savary and Miller classification and the treatment was stopped when healing was confirmed. The condition was evaluated as healed when disappearance of erosion was confirmed.

[2] = test system: patients with gastroesophageal reflux symptoms; test: Clinical treatment of patients with gastroesophageal reflux symptoms; details: 20 mg tablet daily;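 on Evolution of symptom: one to three plus signs grade improvement from moderate to highly favorable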
Description: (§1) Some clinical examples are given below, which show the effects of treatment on patients suffering from gastroesophageal reflux or dyspepsia, treated by the oral administration of tenatoprazole.
Treatment consisted in the daily administration of a tablet containing 20 mg tenatoprazole.

[3] = test system: patients with symptoms of functional dyspepsia; test: Clinical treatment of patients with symptoms of functional dyspepsia; set-up: Safety: key: +: moderate; ++: ranging from moderate to highly favorable; +++: highly favorable; details: oral
Text: as §1

[4] = test system: patients with atypical symptoms of gastroesophageal reflux; test: Clinical treatment of patients with atypical symptoms of gastroesophageal reflux; set-up: Safety: key: +: moderate; ++: ranging from moderate to highly favorable; +++: highly favorable; details: oral; on Evolution of symptom: key: +: moderate; ++: ranging from moderate to highly favorable; +++: highly favorable
Text: as §1

[5] = patient 30, nocturnal heartburn, 8 weeks
[6] = patient 25, epigastric discomfort, 12 weeks
[7] = patient 28, distension, 4 weeks
[8] = patient 34, early satiety, 8 weeks
[9] = patient 36, epigastric discomfort, 8 weeks
[10] = patient 38, epigastric pain, 8 weeks
[11] = patient 38, sensation of gastric fullness, 8 weeks
[12] = patient 39, epigastric pain, 4 weeks
[13] = patient 42, early satiety, 6 weeks
[14] = patient 45, epigastric pain, 6 weeks
[15] = patient 26, asthma, link with GERD ++, 12 weeks
[16] = patient 27, dental caries, link with GERD +, 12 weeks
[17] = patient 29, noct. cough, link with GERD +++, 7 weeks
[18] = patient 31, pharyngitis, link with GERD +, 8 weeks
[19] = patient 33, asthma, link with GERD ++, 12 weeks
[20] = patient 34, dysphonia, link with GERD ++, 4 weeks
[21] = patient 34, pharyngitis, link with GERD ++, 8 weeks
[22] = patient 36, dysphonia, link with GERD ++, 5 weeks
[23] = patient 36, noct. cough, link with GERD ++, 8 weeks
[24] = patient 44, pharyngitis, link with GERD +, 4 weeks
[25] = patient 45, pseudo-angina, link with GERD ++, 8 weeks
[26] = patient 49, pseudo-angina, link with GERD ++, 12 weeks

SMILES: COc1ccc2[nH]c([S+]([O-])Cc3ncc(C)c(OC)c3C)nc2n1 (stereo not shown) [tenatoprazole, 5-methoxy-2-[[(4-methoxy-3,5-dimethyl-2-pyridyl)methyl]sulfinyl]imidazo[4,5-b]pyridine]
- Improvement rating of symptoms, patients rated A markedly improved ([1]; 1st study, 1 week): 16
- Improvement rating of symptoms, patients rated B moderately improved ([1]; 1st study, 1 week): 6
- Improvement rating of symptoms, patients rated C slightly improved ([1]; 1st study, 1 week): 0
- Improvement rating of symptoms, patients rated D not changed ([1]; 1st study, 1 week): 3
- Improvement rating of symptoms, patients rated E aggravated ([1]; 1st study, 1 week): 0
- Improvement rating of symptoms, patients rated A markedly improved ([1]; 1st study, 2 weeks): 21
- Improvement rating of symptoms, patients rated B moderately improved ([1]; 1st study, 2 weeks): 1
- Improvement rating of symptoms, patients rated C slightly improved ([1]; 1st study, 2 weeks): 0
- Improvement rating of symptoms, patients rated D not changed ([1]; 1st study, 2 weeks): 1
- Improvement rating of symptoms, patients rated E aggravated ([1]; 1st study, 2 weeks): 0
- Improvement rating of symptoms, patients rated A markedly improved ([1]; 1st study, 4 weeks): 23
- Improvement rating of symptoms, patients rated B moderately improved ([1]; 1st study, 4 weeks): 0
- Improvement rating of symptoms, patients rated C slightly improved ([1]; 1st study, 4 weeks): 1
- Improvement rating of symptoms, patients rated D not changed ([1]; 1st study, 4 weeks): 0
- Improvement rating of symptoms, patients rated E aggravated ([1]; 1st study, 4 weeks): 0
- Improvement rating of symptoms, patients rated A markedly improved ([1]; 1st study, 6 weeks): 10
- Improvement rating of symptoms, patients rated B moderately improved ([1]; 1st study, 6 weeks): 0
- Improvement rating of symptoms, patients rated C slightly improved ([1]; 1st study, 6 weeks): 1
- Improvement rating of symptoms, patients rated D not changed ([1]; 1st study, 6 weeks): 0
- Improvement rating of symptoms, patients rated E aggravated ([1]; 1st study, 6 weeks): 0
- Improvement rating of symptoms, patients rated A markedly improved ([1]; 1st study, 8 weeks): 9
- Improvement rating of symptoms, patients rated B moderately improved ([1]; 1st study, 8 weeks): 0
- Improvement rating of symptoms, patients rated C slightly improved ([1]; 1st study, 8 weeks): 1
- Improvement rating of symptoms, patients rated D not changed ([1]; 1st study, 8 weeks): 0
- Improvement rating of symptoms, patients rated E aggravated ([1]; 1st study, 8 weeks): 0
- Improvement rating of symptoms, patients rated A markedly improved ([1]; 1st study, 10 weeks): 2
- Improvement rating of symptoms, patients rated B moderately improved ([1]; 1st study, 10 weeks): 0
- Improvement rating of symptoms, patients rated C slightly improved ([1]; 1st study, 10 weeks): 0
- Improvement rating of symptoms, patients rated D not changed ([1]; 1st study, 10 weeks): 0
- Improvement rating of symptoms, patients rated E aggravated ([1]; 1st study, 10 weeks): 0
- Improvement rating of symptoms, patients rated A markedly improved ([1]; 1st study, final): 21
- Improvement rating of symptoms, patients rated B moderately improved ([1]; 1st study, final): 0
- Improvement rating of symptoms, patients rated C slightly improved ([1]; 1st study, final): 1
- Improvement rating of symptoms, patients rated D not changed ([1]; 1st study, final): 0
- Improvement rating of symptoms, patients rated E aggravated ([1]; 1st study, final): 0
- Improvement rating of symptoms, patients rated A markedly improved ([1]; 2nd study, 1 week): 19
- Improvement rating of symptoms, patients rated B moderately improved ([1]; 2nd study, 1 week): 2
- Improvement rating of symptoms, patients rated C slightly improved ([1]; 2nd study, 1 week): 1
- Improvement rating of symptoms, patients rated D not changed ([1]; 2nd study, 1 week): 1
- Improvement rating of symptoms, patients rated E aggravated ([1]; 2nd study, 1 week): 0
- Improvement rating of symptoms, patients rated A markedly improved ([1]; 2nd study, 2 weeks): 21
- Improvement rating of symptoms, patients rated B moderately improved ([1]; 2nd study, 2 weeks): 1
- Improvement rating of symptoms, patients rated C slightly improved ([1]; 2nd study, 2 weeks): 1
- Improvement rating of symptoms, patients rated D not changed ([1]; 2nd study, 2 weeks): 0
- Improvement rating of symptoms, patients rated E aggravated ([1]; 2nd study, 2 weeks): 0
- Improvement rating of symptoms, patients rated A markedly improved ([1]; 2nd study, 4 weeks): 20
- Improvement rating of symptoms, patients rated B moderately improved ([1]; 2nd study, 4 weeks): 1
- Improvement rating of symptoms, patients rated C slightly improved ([1]; 2nd study, 4 weeks): 1
- Improvement rating of symptoms, patients rated D not changed ([1]; 2nd study, 4 weeks): 0
- Improvement rating of symptoms, patients rated E aggravated ([1]; 2nd study, 4 weeks): 0
- Improvement rating of symptoms, patients rated A markedly improved ([1]; 2nd study, 6 weeks): 10
- Improvement rating of symptoms, patients rated B moderately improved ([1]; 2nd study, 6 weeks): 0
- Improvement rating of symptoms, patients rated C slightly improved ([1]; 2nd study, 6 weeks): 1
- Improvement rating of symptoms, patients rated D not changed ([1]; 2nd study, 6 weeks): 0
- Improvement rating of symptoms, patients rated E aggravated ([1]; 2nd study, 6 weeks): 0
- Improvement rating of symptoms, patients rated A markedly improved ([1]; 2nd study, 8 weeks): 10
- Improvement rating of symptoms, patients rated B moderately improved ([1]; 2nd study, 8 weeks): 1
- Improvement rating of symptoms, patients rated C slightly improved ([1]; 2nd study, 8 weeks): 0
- Improvement rating of symptoms, patients rated D not changed ([1]; 2nd study, 8 weeks): 0
- Improvement rating of symptoms, patients rated E aggravated ([1]; 2nd study, 8 weeks): 0
- Improvement rating of symptoms, patients rated A markedly improved ([1]; 2nd study, 10 weeks): 0
- Improvement rating of symptoms, patients rated B moderately improved ([1]; 2nd study, 10 weeks): 1
- Improvement rating of symptoms, patients rated C slightly improved ([1]; 2nd study, 10 weeks): 0
- Improvement rating of symptoms, patients rated D not changed ([1]; 2nd study, 10 weeks): 0
- Improvement rating of symptoms, patients rated E aggravated ([1]; 2nd study, 10 weeks): 0
- Improvement rating of symptoms, patients rated A markedly improved ([1]; 2nd study, 12 weeks): 0
- Improvement rating of symptoms, patients rated B moderately improved ([1]; 2nd study, 12 weeks): 1
- Improvement rating of symptoms, patients rated C slightly improved ([1]; 2nd study, 12 weeks): 0
- Improvement rating of symptoms, patients rated D not changed ([1]; 2nd study, 12 weeks): 0
- Improvement rating of symptoms, patients rated E aggravated ([1]; 2nd study, 12 weeks): 0
- Improvement rating of symptoms, patients rated A markedly improved ([1]; 2nd study, final): 19
- Improvement rating of symptoms, patients rated B moderately improved ([1]; 2nd study, final): 2
- Improvement rating of symptoms, patients rated C slightly improved ([1]; 2nd study, final): 0
- Improvement rating of symptoms, patients rated D not changed ([1]; 2nd study, final): 0
- Improvement rating of symptoms, patients rated E aggravated ([1]; 2nd study, final): 0
- cases in which treatment was perfectly tolerated ([2]; patients of Table 2): 12 out of 14
- evolution observed in symptoms, overall ([2]; patients of Table 2): generally very favorable
- Evolution of symptom ([2]; patient 25, heartburn, 12 weeks): +++
- Evolution of symptom ([2]; patient 28, nocturnal heartburn, 4 weeks): +++
- Evolution of symptom [2, 5]: +++
- Evolution of symptom ([2]; patient 34, heartburn, 8 weeks): +++
- Evolution of symptom ([2]; patient 35, nocturnal heartburn, 4 weeks): ++
- Evolution of symptom ([2]; patient 36, regurgitation, 8 weeks): +++
- Evolution of symptom ([2]; patient 38, heartburn, 8 weeks): +++
- Evolution of symptom ([2]; patient 38, nocturnal heartburn, 8 weeks): +++
- Evolution of symptom ([2]; patient 39, nocturnal heartburn, 4 weeks): +
- Evolution of symptom ([2]; patient 41, heartburn, 8 weeks): +++
- Evolution of symptom ([2]; patient 42, heartburn, 8 weeks): ++
- Evolution of symptom ([2]; patient 45, nocturnal heartburn, 8 weeks): +++
- Evolution of symptom ([2]; patient 47, nocturnal heartburn, 8 weeks): ++
- Evolution of symptom ([2]; patient 49, regurgitation, 8 weeks): ++
- Evolution of symptom [3, 6]: ++
- Safety [3, 6]: +++
- Evolution of symptom [3, 7]: +
- Safety [3, 7]: +++
- Evolution of symptom [3, 5]: +++
- Safety [3, 5]: +++
- Evolution of symptom [3, 8]: +++
- Safety [3, 8]: +++
- Evolution of symptom ([3]; patient 35, heartburn, 8 weeks): +++
- Safety ([3]; patient 35, heartburn, 8 weeks): +++
- Evolution of symptom [3, 9]: +++
- Safety [3, 9]: ++
- Evolution of symptom [3, 10]: +++
- Safety [3, 10]: ++
- Evolution of symptom [3, 11]: +++
- Safety [3, 11]: +++
- Evolution of symptom [3, 12]: ++
- Safety [3, 12]: ++
- Evolution of symptom ([3]; patient 41, heartburn, 6 weeks): +++
- Safety ([3]; patient 41, heartburn, 6 weeks): +++
- Evolution of symptom [3, 13]: ++
- Safety [3, 13]: +++
- Evolution of symptom ([3]; patient 44, nausea, 10 weeks): +++
- Safety ([3]; patient 44, nausea, 10 weeks): +++
- Evolution of symptom [3, 14]: +++
- Safety [3, 14]: ++
- Evolution of symptom ([3]; patient 47, nausea, 4 weeks): ++
- Safety ([3]; patient 47, nausea, 4 weeks): +++
- Evolution of symptom ([3]; patient 49, nausea, 8 weeks): ++
- Safety ([3]; patient 49, nausea, 8 weeks): +++
- Evolution of symptom [4, 15]: +++
- Safety [4, 15]: +++
- Evolution of symptom [4, 16]: 0
- Safety [4, 16]: ++
- Evolution of symptom [4, 17]: +++
- Safety [4, 17]: +++
- Evolution of symptom [4, 18]: +
- Safety [4, 18]: +++
- Evolution of symptom [4, 19]: ++
- Safety [4, 19]: +++
- Evolution of symptom [4, 20]: ++
- Safety [4, 20]: +++
- Evolution of symptom [4, 21]: ++
- Safety [4, 21]: +++
- Evolution of symptom [4, 22]: +++
- Safety [4, 22]: +++
- Evolution of symptom [4, 23]: +++
- Safety [4, 23]: ++
- Evolution of symptom [4, 24]: ++
- Safety [4, 24]: +++
- Evolution of symptom [4, 25]: +++
- Safety [4, 25]: +++
- Evolution of symptom [4, 26]: +++
- Safety [4, 26]: +++
